Data: US20260217698A1 (BEYANG THERAPEUTICS CO., LTD., priority 2022, published 2026)
Values after ≈ are worked out from the molar mass of the structure shown.

Assays:
[1] = target: T1, TIE2 (Homo sapiens, UniProt Q02763); assay: Kinase inhibition, Mobility Shift Assay/IMAP, TIE2; type: biochemical
T1 construct: purchased BPS 40270
Method in brief: (§1)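 Substrate conversion (phosphorylated vs non-phosphorylated) read by mobility shift on Caliper EZ Reader II and converted to % inhibition relative to no-enzyme and DMSO controls. IC50 fitted from % inhibition versus log compound concentration.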

[2] = Solubility test in buffer, LC-MS; type: physicochemical; conditions: aqueous buffer, thermodynamic from solid, room temperature, shaking 8 h, pH not given (method: pH 2.0, 6.5, 7.4)
Experimental: Accurately weigh 3 portions of about 2 mg of the compound, and add appropriate volumes of buffers with the pHs of 2.0, 6.5, and 7.4 respectively to obtain a solution with a concentration of 2 mg/mL. After sonication for 10 min, fix them on a shaker and shaking for 8 h at room temperature. After shaking, sonicate for 10 min and centrifuge for 15 min at 13,000 rpm. Pipette 0.1 mL of supernatant into a new tube, shake and rinse it with 5 mL, and discard the liquid. Transfer 0.5 mL of the supernatant again to a new tube, centrifuge it for 15 min at 13,000 rpm, then collect the supernatant (if necessary, dilute with water) and analyze it by LC-MS. The sample concentrations at 3~5 points are subjected to fitting and reticle for quantification.

[3] = target: VEGFR2 (Homo sapiens, UniProt P35968); assay: Kinase inhibition, Mobility Shift Assay/IMAP, VEGFR2; type: biochemical; set-up: purchased Carna 08-191
Method in brief: as §1

[4] = target: T2, EGFR (Homo sapiens, UniProt P00533); assay: Kinase inhibition, Mobility Shift Assay/IMAP, EGFR; type: biochemical
T2 construct: purchased Carna 08-115
Method in brief: as §1

[5] = tested on: melanin; assay: Binding capacity of compounds to melanin; type: in vitro ADME, cuttlefish (Sepia officinalis); conditions: cuttlefish (Sepia officinalis), melanin suspension (1 mg/mL); 1 mg/mL melanin in PBS pH 7.4, 2 μM compound, 2 h at 37° C.; read-out: Fu % (percentage of free drug)
Method in brief: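 Compound (2 μM final) incubated with washed Sepia melanin (1 mg/mL, PBS pH 7.4) 2 h at 37° C with shaking; PBS with 0.1% BSA served as blank. Supernatants quantified by LC-MS/MS; bound fraction Fb derived from melanin versus blank concentration.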

[6] = target: T3, VEGFR1 (Homo sapiens, UniProt P17948); assay: Kinase inhibition, Mobility Shift Assay/IMAP, VEGFR1; type: biochemical
T3 construct: purchased Invitrogen PR6731B
From the text: (§2) This assay directly monitored the ability of compounds to inhibit kinase phosphorylation by measuring non-phosphorylated and phosphorylated substrates in kinase reactions by using Mobility Shift Assays/IMAP™ analysis.
(§3) Read the conversion ratio data on CaliperEZ Reader II. Convert conversion rates into inhibition ratio data.
(§4) “Min” indicates the readout of the control well without the addition of enzymes; and “Max” indicates the readout of the control well with the addition of DMSO Fit IC50 values with XL Fit excel add-in version […].
(§5) X indicates the log value of compound concentration, and Y indicates the inhibition ratio (% inhibition).

[7] = target: T4, VEGFR3 (Homo sapiens, UniProt P35916); assay: Kinase inhibition, Mobility Shift Assay/IMAP, VEGFR3; type: biochemical
T4 construct: purchased Invitrogen PV4129
From the text: as §2, §3, §4, §5

[8] = tested on: HUVEC cells; assay: Inhibition of VEGF-induced HUVEC cell proliferation, CellTiter Glo; type: cell-based; conditions: Homo sapiens, 20 ng/ml VEGF, 72 hours
From the text: In this experiment, human umbilical vein endothelial cells (HUVEC, Lonza) were used. HUVEC cells are primary cells isolated from umbilical veins. This cell line is a model system to study the functions of endothelial cells. Endothelial cell proliferation in response to VEGF is crucial to the pathological angiogenesis associated with conditions such as tumor development and ocular neovascular diseases.
In this assay, a luciferase bioluminescence assay (CellTiter GLU™, Promega) is used to determine the inhibitory activity of the compounds against VEGF-induced HUVEC cell proliferation and viability. CellTiter GLO™ is a homogeneous method for quantifying the count of viable cells in culture based on ATP, an indicator of metabolically active cells. In this assay, the compound was incubated with HUVEC cells for 72 hours, and then the inhibitory activity of the resulting compound against VEGF-induced HUVEC cell proliferation was measured on the En Vision plate reader.
With the RPMI-1640 medium (plus 5% FBS, 1% Penicillin-Streptomycin) used for the HUVEC cell proliferation experiment, add a cell suspension to a 96-well plate at 100 μl per well, i.e., 4000 HUVEC cells/well, and incubate them overnight in a 5% CO2 incubator at 37° C. (serum starvation). After 24 hours, add 96 μl of the experimental medium to the cell wells, and then add 2 μl of the compound to the cell wells; and after 1 hour following the addition of the compound, add 2 μl of 2 μg/ml VEGF to the cell wells. Add 0.1% DMSO and 20 ng/ml VEGF to cell wells to serve as high-reading control wells. Take cell-free wells with only medium as low-reading control wells. […] After 72 hours of incubation of the cell plate in the incubator, hold the cell plate to be tested at room temperature and discard 100 μl of medium per well. Add 100 μl of CTG reagent (CellTiter Glo kit) per well, oscillate the cell plate in a fast oscillator for 3 minutes, and keep the cell plate at room temperature in the dark for 30 minutes. Read the chemiluminescence signal value with the Envision instrument.
X indicates the log value of compound concentration, Y indicates the inhibition rate (% inhibition), Top indicates the readout of the high-reading control well.

T3 sequence (P17948 27-1338): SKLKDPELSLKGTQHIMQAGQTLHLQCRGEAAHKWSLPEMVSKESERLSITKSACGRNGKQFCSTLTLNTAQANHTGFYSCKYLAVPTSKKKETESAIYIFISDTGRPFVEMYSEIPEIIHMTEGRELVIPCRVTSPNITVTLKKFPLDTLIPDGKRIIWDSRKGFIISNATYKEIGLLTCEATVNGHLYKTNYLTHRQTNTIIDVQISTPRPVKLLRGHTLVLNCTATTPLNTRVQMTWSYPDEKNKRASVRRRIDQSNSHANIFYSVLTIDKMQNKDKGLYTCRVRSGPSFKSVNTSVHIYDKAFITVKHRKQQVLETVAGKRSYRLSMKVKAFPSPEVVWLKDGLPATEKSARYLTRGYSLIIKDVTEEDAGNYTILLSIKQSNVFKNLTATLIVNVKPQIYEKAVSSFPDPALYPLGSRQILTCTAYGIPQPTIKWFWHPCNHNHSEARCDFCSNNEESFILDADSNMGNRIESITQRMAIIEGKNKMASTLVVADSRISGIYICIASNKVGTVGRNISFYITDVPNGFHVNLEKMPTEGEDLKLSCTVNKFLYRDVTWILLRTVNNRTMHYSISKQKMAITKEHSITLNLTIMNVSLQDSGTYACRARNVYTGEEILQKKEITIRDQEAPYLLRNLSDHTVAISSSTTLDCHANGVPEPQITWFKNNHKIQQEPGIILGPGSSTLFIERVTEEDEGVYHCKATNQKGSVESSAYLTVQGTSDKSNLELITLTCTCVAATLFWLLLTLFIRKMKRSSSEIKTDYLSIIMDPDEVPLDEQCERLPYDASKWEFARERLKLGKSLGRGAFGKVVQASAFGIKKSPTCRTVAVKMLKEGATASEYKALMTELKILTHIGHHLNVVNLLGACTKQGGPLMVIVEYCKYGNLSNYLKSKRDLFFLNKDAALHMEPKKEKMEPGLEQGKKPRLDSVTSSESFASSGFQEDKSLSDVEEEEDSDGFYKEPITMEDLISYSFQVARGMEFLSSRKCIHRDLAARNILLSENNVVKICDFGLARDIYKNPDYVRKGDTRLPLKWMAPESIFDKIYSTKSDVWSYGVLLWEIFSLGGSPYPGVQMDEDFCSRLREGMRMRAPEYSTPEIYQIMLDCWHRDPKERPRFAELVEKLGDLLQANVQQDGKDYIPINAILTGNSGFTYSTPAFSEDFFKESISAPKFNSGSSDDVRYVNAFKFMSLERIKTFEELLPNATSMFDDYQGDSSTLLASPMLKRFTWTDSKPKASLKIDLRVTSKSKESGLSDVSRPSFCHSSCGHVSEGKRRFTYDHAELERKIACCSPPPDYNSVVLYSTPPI
T1 sequence (Q02763 23-1124): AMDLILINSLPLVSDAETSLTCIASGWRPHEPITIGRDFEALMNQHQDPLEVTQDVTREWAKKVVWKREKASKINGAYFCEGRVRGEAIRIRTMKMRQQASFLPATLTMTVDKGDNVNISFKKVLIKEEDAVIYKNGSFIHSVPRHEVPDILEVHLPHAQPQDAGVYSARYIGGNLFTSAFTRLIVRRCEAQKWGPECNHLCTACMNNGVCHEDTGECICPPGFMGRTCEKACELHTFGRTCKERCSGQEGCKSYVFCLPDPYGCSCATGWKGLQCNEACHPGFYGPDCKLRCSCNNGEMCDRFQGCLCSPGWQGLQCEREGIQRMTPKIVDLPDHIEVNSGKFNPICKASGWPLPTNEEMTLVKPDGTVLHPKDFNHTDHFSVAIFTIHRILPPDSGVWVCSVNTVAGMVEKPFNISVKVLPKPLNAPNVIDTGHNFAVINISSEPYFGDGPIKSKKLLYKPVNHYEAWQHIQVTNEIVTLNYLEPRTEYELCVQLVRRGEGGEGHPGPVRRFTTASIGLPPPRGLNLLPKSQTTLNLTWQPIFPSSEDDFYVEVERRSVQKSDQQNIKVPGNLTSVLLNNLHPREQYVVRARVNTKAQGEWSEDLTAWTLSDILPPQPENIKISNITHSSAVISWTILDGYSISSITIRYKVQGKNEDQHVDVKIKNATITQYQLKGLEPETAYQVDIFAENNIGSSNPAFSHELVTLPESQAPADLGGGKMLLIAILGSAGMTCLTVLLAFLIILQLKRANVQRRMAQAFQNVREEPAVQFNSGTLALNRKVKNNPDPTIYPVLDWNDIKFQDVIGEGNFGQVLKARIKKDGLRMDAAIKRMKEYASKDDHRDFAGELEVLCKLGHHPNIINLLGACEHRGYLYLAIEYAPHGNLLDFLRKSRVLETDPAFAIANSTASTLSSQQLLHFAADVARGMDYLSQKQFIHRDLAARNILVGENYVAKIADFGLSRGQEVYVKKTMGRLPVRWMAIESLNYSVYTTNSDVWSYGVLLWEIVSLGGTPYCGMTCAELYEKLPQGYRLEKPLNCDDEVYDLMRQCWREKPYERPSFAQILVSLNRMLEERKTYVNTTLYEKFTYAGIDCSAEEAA
T4 sequence (P35916 25-1363): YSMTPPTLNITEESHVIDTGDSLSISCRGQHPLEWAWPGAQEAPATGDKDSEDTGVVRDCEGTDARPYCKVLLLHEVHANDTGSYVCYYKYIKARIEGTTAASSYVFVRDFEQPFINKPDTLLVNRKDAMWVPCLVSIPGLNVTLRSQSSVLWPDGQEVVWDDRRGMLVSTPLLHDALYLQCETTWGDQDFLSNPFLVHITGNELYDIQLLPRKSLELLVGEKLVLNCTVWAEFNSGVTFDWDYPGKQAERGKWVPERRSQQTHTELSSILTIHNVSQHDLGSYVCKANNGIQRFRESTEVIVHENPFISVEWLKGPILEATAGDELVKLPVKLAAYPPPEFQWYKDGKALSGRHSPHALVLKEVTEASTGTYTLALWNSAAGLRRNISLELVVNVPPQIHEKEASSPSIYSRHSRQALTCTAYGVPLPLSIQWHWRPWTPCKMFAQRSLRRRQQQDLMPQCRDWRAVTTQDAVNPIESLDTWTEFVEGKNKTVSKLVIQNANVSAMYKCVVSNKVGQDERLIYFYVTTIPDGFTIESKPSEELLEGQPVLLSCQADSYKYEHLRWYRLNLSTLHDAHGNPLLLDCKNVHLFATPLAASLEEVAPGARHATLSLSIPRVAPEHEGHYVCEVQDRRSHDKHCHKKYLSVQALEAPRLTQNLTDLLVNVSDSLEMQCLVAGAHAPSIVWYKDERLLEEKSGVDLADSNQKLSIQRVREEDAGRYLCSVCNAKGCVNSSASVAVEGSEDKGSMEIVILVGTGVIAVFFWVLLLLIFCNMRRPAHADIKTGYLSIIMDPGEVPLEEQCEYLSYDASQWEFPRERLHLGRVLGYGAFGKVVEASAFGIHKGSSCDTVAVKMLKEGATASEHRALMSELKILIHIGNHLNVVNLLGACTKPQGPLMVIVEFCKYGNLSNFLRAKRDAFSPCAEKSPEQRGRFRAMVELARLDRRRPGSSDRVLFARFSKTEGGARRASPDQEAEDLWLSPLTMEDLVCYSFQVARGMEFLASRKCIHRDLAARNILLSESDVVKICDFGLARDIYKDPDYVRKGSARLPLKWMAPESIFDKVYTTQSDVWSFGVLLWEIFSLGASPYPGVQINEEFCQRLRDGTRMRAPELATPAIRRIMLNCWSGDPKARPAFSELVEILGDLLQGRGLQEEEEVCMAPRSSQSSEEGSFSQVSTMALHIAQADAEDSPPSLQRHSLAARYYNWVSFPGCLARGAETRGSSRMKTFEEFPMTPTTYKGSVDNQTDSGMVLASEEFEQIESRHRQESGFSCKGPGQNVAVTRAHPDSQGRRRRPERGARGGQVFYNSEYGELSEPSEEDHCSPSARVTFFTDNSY
T2 sequence (P00533 669-1210 limits assumed): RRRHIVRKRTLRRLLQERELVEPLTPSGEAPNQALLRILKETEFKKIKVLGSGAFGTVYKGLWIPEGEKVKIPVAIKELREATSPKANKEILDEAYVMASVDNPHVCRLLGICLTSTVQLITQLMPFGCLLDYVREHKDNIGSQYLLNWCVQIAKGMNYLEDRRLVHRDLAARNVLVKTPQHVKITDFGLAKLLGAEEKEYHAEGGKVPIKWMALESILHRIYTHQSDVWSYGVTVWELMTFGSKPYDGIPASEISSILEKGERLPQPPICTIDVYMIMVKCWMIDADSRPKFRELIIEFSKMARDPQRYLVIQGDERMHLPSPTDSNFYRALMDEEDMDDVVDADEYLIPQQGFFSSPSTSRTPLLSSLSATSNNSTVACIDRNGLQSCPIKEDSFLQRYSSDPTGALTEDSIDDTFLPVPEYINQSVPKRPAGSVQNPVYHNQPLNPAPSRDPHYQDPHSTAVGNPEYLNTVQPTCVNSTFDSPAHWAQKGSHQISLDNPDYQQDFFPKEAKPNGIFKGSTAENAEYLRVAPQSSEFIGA
Chain of VEGFR2 (P35968 790-1356 limits assumed): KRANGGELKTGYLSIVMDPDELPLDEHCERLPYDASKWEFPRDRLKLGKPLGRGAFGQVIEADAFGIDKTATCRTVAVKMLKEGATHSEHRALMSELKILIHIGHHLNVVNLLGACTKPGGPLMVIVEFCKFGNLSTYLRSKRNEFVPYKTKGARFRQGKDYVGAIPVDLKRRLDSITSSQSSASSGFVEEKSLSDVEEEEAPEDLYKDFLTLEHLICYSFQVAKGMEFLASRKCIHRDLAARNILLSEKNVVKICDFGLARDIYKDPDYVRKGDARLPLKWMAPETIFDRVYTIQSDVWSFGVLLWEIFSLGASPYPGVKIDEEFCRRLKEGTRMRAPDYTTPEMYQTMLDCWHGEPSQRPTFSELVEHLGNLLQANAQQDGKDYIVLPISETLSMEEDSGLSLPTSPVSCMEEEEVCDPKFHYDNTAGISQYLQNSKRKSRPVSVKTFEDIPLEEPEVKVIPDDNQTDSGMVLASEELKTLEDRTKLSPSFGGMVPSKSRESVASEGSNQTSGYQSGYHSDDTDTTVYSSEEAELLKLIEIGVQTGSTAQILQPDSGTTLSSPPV

Structure (SMILES)	IC50 [1] [nM]	solubility at 8 h [2] [µg/mL]	IC50 [3] [nM]	IC50 [4] [nM]	fraction unbound at 2 h, 2 μM [5]	IC50 [6] [nM]	IC50 [7] [nM]	IC50 [8] [nM]
COc1cccc(COc2nsc(NC(=O)NCCCCN3CCCC3)c2C(N)=O)c1F [Compound T030, 3-((2-fluoro-3-methoxybenzyl)oxy)-5-(3-(4-(pyrrolidin-1-yl)butyl)ureido)isothiazole-4-carboxamide]		1520 (≈ 3260 µM)	34.8	21800	0.0232			
CNC(=O)c1cccc(COc2nsc(NC(=O)NCCCCN3CCCC3)c2C(N)=O)c1 [Compound T049, 3-((3-(methylcarbamoyl)benzyl)oxy)-5-(3-(4-(pyrrolidin-1-yl)butyl)ureido)isothiazole-4-carboxamide]	7560	2310 (≈ 4880 µM)	19.8			21.6		
CNC(=O)c1cccc(COc2nsc(NC(=O)NCCC3CCN(C)CC3)c2C(N)=O)c1 [Compound T055, 3-((3-(methylcarbamoyl)benzyl)oxy)-5-(3-(2-(1-methylpiperidin-4-yl)ethyl)ureido)isothiazole-4-carboxamide]	3360	144 (≈ 303 µM)	15.7	49700		7.7	39.3	
NC(=O)c1c(OCc2cccc(C(=O)NC3CC3)c2)nsc1NC(=O)NCCCCN1CCCC1 [Compound T056, 3-((3-(cyclopropylcarbamoyl)benzyl)oxy)-5-(3-(4-(pyrrolidin-1-yl)butyl)ureido)isothiazole-4-carboxamide]		2000 (≈ 4000 µM)	4.69	50600	0.0183	3.33	13.2	
CN1CCN(CCCNC(=O)Nc2snc(OCc3cccc(C(=O)NC4CC4)c3)c2C(N)=O)CC1 [Compound T069, 3-((3-(cyclopropylcarbamoyl)benzyl)oxy)-5-(3-(3-(4-methylpiperazin-1-yl)propyl)ureido)isothiazole-4-carboxamide]	3510	633 (≈ 1230 µM)	2.77	> 60000		5.48	14.6	
CNC(=O)c1cc(COc2nsc(NC(=O)NCCCCN3CCCC3)c2C(N)=O)ccc1F [Compound T070, 3-((4-fluoro-3-(methylcarbamoyl)benzyl)oxy)-5-(3-(4-(pyrrolidin-1-yl)butyl)ureido)isothiazole-4-carboxamide]	7800	927 (≈ 1880 µM)	12	> 60000		9.14	50.1	
NC(=O)c1c(OCc2cc3c(cc2F)CCO3)nsc1NC(=O)NCCCN1CC[C@H](F)C1 [Compound T119, 3-[(5-fluoro-2,3-dihydrobenzofuran-6-yl)methoxy]-5-[3-[(3S)-3-fluoropyrrolidin-1-yl]propylcarbamoylamino]isothiazole-4-carboxamide]	205			19900	0.0202			67
CCNC(=O)c1ccc(F)c(COc2nsc(NC(=O)NCCC3CCN(CCF)CC3)c2C(N)=O)c1 [Compound T127, 3-[[5-(ethylcarbamoyl)-2-fluoro-phenyl]methoxy]-5-[2-[1-(2-fluoroethyl)-4-piperidyl]ethylcarbamoylamino]isothiazole-4-carboxamide]	241	1640 (≈ 3040 µM)	3		0.0362			
NC(=O)c1c(OCc2ccc(F)c(C(=O)NC3CC3)c2)nsc1NC(=O)NCCCN1CC[C@H](F)C1 [Compound T152, 3-[[3-(cyclopropylcarbamoyl)-4-fluoro-phenyl]methoxy]-5-[3-[(3S)-3-fluoropyrrolidin-1-yl]propylcarbamoylamino]isothiazole-4-carboxamide]		815 (≈ 1560 µM)	3.53	24000		2.25	12.8	

The next lines start with results.

IC50 [1] [nM]	solubility at 8 h [2] [µg/mL]	IC50 [3] [nM]	IC50 [4] [nM]	fraction unbound at 2 h, 2 μM [5]	IC50 [6] [nM]	IC50 [7] [nM]	Structure (SMILES)	IC50 [8] [nM]
475	608 (≈ 1320 µM)	43					NC(=O)c1c(OCc2ccc3c(c2)OCO3)nsc1NC(=O)NCCCCN1CCCC1 [Compound T007, 3-(benzo[d][1,3]dioxol-5-ylmethoxy)-5-(3-(4-(pyrrolidin-1-yl)butyl)ureido)isothiazole-4-carboxamide]	
5430	782 (≈ 1560 µM)	9.95	≥ 60000		6.55	24.1	CN1CCN(CCNC(=O)Nc2snc(OCc3cccc(C(=O)NC4CC4)c3)c2C(N)=O)CC1 [Compound T065, 3-((3-(cyclopropylcarbamoyl)benzyl)oxy)-5-(3-(2-(4-methylpiperazin-1-yl)ethyl)ureido)isothiazole-4-carboxamide]	
	977 (≈ 2010 µM)	8.86	> 60000		9.43	30.1	NC(=O)c1c(OCc2cccc(C(=O)NC3CC3)c2)nsc1NC(=O)NCCCN1CCCC1 [Compound T067, 3-((3-(cyclopropylcarbamoyl)benzyl)oxy)-5-(3-(3-(pyrrolidin-1-yl)propyl)ureido)isothiazole-4-carboxamide]	
	2060 (≈ 4480 µM)		43500	0.0196			NC(=O)c1c(OCc2ccc3c(c2)COC3)nsc1NC(=O)NCCCCN1CCCC1 [Compound T072, 3-((1,3-dihydroisobenzofuran-5-yl)methoxy)-5-(3-(4-(pyrrolidin-1-yl)butyl)ureido)isothiazole-4-carboxamide]	
94.5		4.96	5490	0.0229			NC(=O)c1c(OCc2cc3c(cc2F)CCO3)nsc1NC(=O)NCCC1CCN(CCF)CC1 [Compound T103, 3-[(5-fluoro-2,3-dihydrobenzofuran-6-yl)methoxy]-5-[2-[1-(2-fluoroethyl)-4-piperidyl]ethylcarbamoylamino]isothiazole-4-carboxamide]	66
223		15.1	19800	0.0449			COc1ccc(F)c(COc2nsc(NC(=O)NCCCCN3CC[C@@H](F)C3)c2C(N)=O)c1F [Compound T111, 3-[(2,6-difluoro-3-methoxy-phenyl)methoxy]-5-[4-[(3R)-3-fluoropyrrolidin-1-yl]butylcarbamoylamino]isothiazole-4-carboxamide]	32
129		14.6	10200	0.0222			COc1ccc(F)c(COc2nsc(NC(=O)NCCC3CCN(CCF)CC3)c2C(N)=O)c1F [Compound T112, 3-[(2,6-difluoro-3-methoxy-phenyl)methoxy]-5-[2-[1-(2-fluoroethyl)-4-piperidyl]ethylcarbamoylamino]isothiazole-4-carboxamide]	36
